Source: the NIST ThermoML archive (doi:10.1016/j.fluid.2005.04.008)
± gives the expanded uncertainty stated by the source.

Test: xn = mol fraction of the nth substance listed
Conditions: Liquid

CCCCCCCCCC=CC=CC=CC=CC=CC=CC(=O)OCC [docosahexaenoic acid, ethyl ester] + O=C=O
Conditions | mass density [kg/m3]
313 K, x2 = 0.5325 | 912.2 ± 2.6
313 K, x2 = 0.6836 | 915.9 ± 2
313 K, x2 = 0.7773 | 919.1 ± 1.7
313 K, x2 = 0.849 | 920.8 ± 1.5
313 K, x2 = 0.8795 | 921.3 ± 1.4
313 K, x2 = 0.8972 | 922.1 ± 1.4
313 K, x2 = 0.9121 | 923 ± 1.3
313 K, x2 = 0.9222 | 923.7 ± 1.3
313 K, x2 = 0.9266 | 923.8 ± 1.3
313 K, x2 = 0.9335 | 924 ± 1.3
313 K, x2 = 0.9366 | 923.9 ± 1.3
313 K, x2 = 0.9392 | 924.1 ± 1.3
313 K, x2 = 0.9443 | 921.9 ± 1.4
333 K, x2 = 0.5583 | 894.9 ± 2.5
333 K, x2 = 0.6793 | 896.5 ± 2.1
333 K, x2 = 0.7551 | 898.4 ± 1.8
333 K, x2 = 0.7811 | 899.5 ± 1.8
333 K, x2 = 0.8154 | 900 ± 1.7
333 K, x2 = 0.8278 | 900.5 ± 1.6
333 K, x2 = 0.8411 | 900.7 ± 1.6
333 K, x2 = 0.8612 | 900.8 ± 1.6
333 K, x2 = 0.8784 | 901 ± 1.5
333 K, x2 = 0.8918 | 901.4 ± 1.5
333 K, x2 = 0.9022 | 901.3 ± 1.5
333 K, x2 = 0.9114 | 900.5 ± 1.5
333 K, x2 = 0.9221 | 899 ± 1.6
333 K, x2 = 0.9419 | 887.6 ± 1.7

CCCCCCCCCC=CC=CC=CC=CC=CC(=O)OCC [eicosapentaenoic acid, ethyl ester] + O=C=O
Conditions | mass density [kg/m3]
313 K, x2 = 0.5962 | 907.6 ± 1.6
313 K, x2 = 0.6865 | 911.9 ± 1.5
313 K, x2 = 0.7582 | 915.2 ± 1.4
313 K, x2 = 0.8265 | 916.8 ± 1.3
313 K, x2 = 0.8496 | 916.3 ± 1.3
313 K, x2 = 0.8708 | 916 ± 1.3
313 K, x2 = 0.8826 | 916.1 ± 1.3
313 K, x2 = 0.8921 | 916 ± 1.3
313 K, x2 = 0.9008 | 915.5 ± 1.3
313 K, x2 = 0.9091 | 915.2 ± 1.3
313 K, x2 = 0.9184 | 913.7 ± 1.4
313 K, x2 = 0.9264 | 912.3 ± 1.4
313 K, x2 = 0.9402 | 906.6 ± 1.5
333 K, x2 = 0.2842 | 886.2 ± 2
333 K, x2 = 0.5005 | 888.6 ± 1.8
333 K, x2 = 0.5996 | 890.9 ± 1.7
333 K, x2 = 0.6826 | 892.9 ± 1.6
333 K, x2 = 0.7423 | 894.3 ± 1.6
333 K, x2 = 0.7876 | 895.3 ± 1.5
333 K, x2 = 0.8186 | 895.6 ± 1.5
333 K, x2 = 0.8338 | 895.5 ± 1.5
333 K, x2 = 0.8541 | 895.1 ± 1.5
333 K, x2 = 0.8766 | 894.8 ± 1.5
333 K, x2 = 0.8927 | 894.1 ± 1.5
333 K, x2 = 0.9043 | 892.8 ± 1.5
333 K, x2 = 0.916 | 890.3 ± 1.6
333 K, x2 = 0.9324 | 879.8 ± 1.8

CCCCC/C=C\C/C=C\CCCCCCCC(=O)OC [methyl (Z,Z)-9,12-octadecadienate] + O=C=O
Conditions | mass density [kg/m3]
313 K, x2 = 0.5217 | 879.7 ± 1.6
313 K, x2 = 0.6288 | 881.5 ± 1.6
313 K, x2 = 0.7185 | 884.5 ± 1.6
313 K, x2 = 0.758 | 888.1 ± 1.6
313 K, x2 = 0.8057 | 890.6 ± 1.5
313 K, x2 = 0.8337 | 892.9 ± 1.5
313 K, x2 = 0.8624 | 895.4 ± 1.5
313 K, x2 = 0.8862 | 896.8 ± 1.5
313 K, x2 = 0.8984 | 895.2 ± 1.5
313 K, x2 = 0.9209 | 892.9 ± 1.5
313 K, x2 = 0.9289 | 890.5 ± 1.6
313 K, x2 = 0.9388 | 885.7 ± 1.7
333 K, x2 = 0.6128 | 868.3 ± 1.7
333 K, x2 = 0.7016 | 870.8 ± 1.7
333 K, x2 = 0.791 | 872.8 ± 1.7
333 K, x2 = 0.8255 | 874.1 ± 1.7
333 K, x2 = 0.852 | 875 ± 1.7
333 K, x2 = 0.8742 | 874.1 ± 1.7
333 K, x2 = 0.8981 | 873.4 ± 1.7
333 K, x2 = 0.9048 | 872.7 ± 1.7
333 K, x2 = 0.9102 | 871.7 ± 1.7
333 K, x2 = 0.9156 | 870.5 ± 1.7
333 K, x2 = 0.9193 | 870 ± 1.8
333 K, x2 = 0.9264 | 864.7 ± 1.9
333 K, x2 = 0.934 | 860.3 ± 2.3
333 K, x2 = 0.9509 | 838.1 ± 2.6

CCCCCCCC/C=C\CCCCCCCC(=O)OC [methyl cis-9-octadecenoate] + O=C=O
Conditions | mass density [kg/m3]
313 K, x2 = 0.4876 | 868.6 ± 1.7
313 K, x2 = 0.5963 | 874.2 ± 1.7
313 K, x2 = 0.7077 | 878.5 ± 1.6
313 K, x2 = 0.7931 | 884.3 ± 1.6
313 K, x2 = 0.833 | 885.5 ± 1.6
313 K, x2 = 0.8595 | 887.5 ± 1.5
313 K, x2 = 0.8736 | 887.5 ± 1.5
313 K, x2 = 0.8891 | 886.9 ± 1.5
313 K, x2 = 0.9111 | 886.4 ± 1.6
313 K, x2 = 0.9231 | 885.1 ± 1.6
313 K, x2 = 0.9312 | 882.7 ± 1.6
313 K, x2 = 0.9387 | 881.2 ± 1.6
333 K, x2 = 0.6086 | 857.1 ± 1.8
333 K, x2 = 0.6969 | 859.9 ± 1.8
333 K, x2 = 0.7916 | 862.3 ± 1.7
333 K, x2 = 0.8255 | 864.4 ± 1.7
333 K, x2 = 0.8509 | 865.8 ± 1.7
333 K, x2 = 0.8813 | 867.4 ± 1.7
333 K, x2 = 0.8901 | 864.5 ± 1.7
333 K, x2 = 0.9072 | 864.9 ± 1.7
333 K, x2 = 0.9167 | 863.2 ± 1.7
333 K, x2 = 0.9213 | 863.1 ± 1.8
333 K, x2 = 0.9282 | 859.2 ± 1.8
333 K, x2 = 0.9341 | 858.9 ± 1.9
333 K, x2 = 0.943 | 851.6 ± 2.1
